According to patent publication US20260007613A1, “LONG-ACTING LOW-TOXICITY NOVEL CATIONIC LIPID COMPOUNDS AND COMPOSITION THEREOF” (BEIJING YOUCAREKECHUANG PHARMACEUTICAL TECHNOLOGY CO., LTD., priority 2023, published 2026):

Assays:
293T cells [1] = assay: Fluorescent detection of Fluc-mRNA (cell transfection efficiency of LNP formulations); type: cell-based
Description: (§1) Cell recovery and passage: 293T cells were recovered, cultured in a culture dish, and passaged to the required number of cells.
(§2) Seeding plate: The cells in the culture dish were digested and counted. Cells were spread in a 96-well plate at 10,000 cells per well and in a 12-well plate at 150,000 cells per well. Cells were cultured overnight until the cells adhered to the wall.
(§3) Cell recovery and passage: the method was the same as in Example 3.
(§4) Seeding plate: the method was the same as in Example 3.
An LNP formulation containing […] of Fluc-mRNA (the carrier components of the LNP formulation were cationic lipid, neutral lipid, structured lipid and polymer-conjugated lipid with a molar ratio of 49:10:39.5:1.5, wherein the cationic lipid was listed in Table 1) was added to the cell culture medium of a 96-well plate, and further incubated for 24 hours. The corresponding reagent was added according to the instructions of the […] Luciferase Assay Kit, and the fluorescence expression intensity of each well was detected by an IVIS fluorescence detection system. This test verified the transfection efficiencies of LNP formulations in cells, see Tables 4-7 for specific test results.

[2] = Particle size and polydispersity index (PDI) of lipid nanoparticles by dynamic light scattering; type: physicochemical; conditions: LNP formulation prepared from the cationic lipid, 25° C.
Description: The particle size and polydispersity index (PDI) were determined by dynamic light scattering using Malvern laser particle size analyzer.
10 μL of the liposome solution was weighed, diluted to 1 mL with RNase-free deionized water, and added to the sample pool. Each sample was measured in triplicate. The measurement conditions were: […] scattering angle, and 25° C.

293T cells [3] = assay: Cell survival rate determination (CCK-8); type: cell-based; conditions: LNP formulation of Fluc-mRNA, 24 hours, CCK-8
Description: as §1, §2, §3, §4
An LNP formulation containing […] of Fluc-mRNA (the carrier components of the LNP formulation were cationic lipid, neutral lipid, structured lipid and polymer-conjugated lipid with a molar ratio of 49:10:39.5:1.5, wherein the cationic lipid was listed in Table 1) and the formulation of Lipofectamine 3000 were added to the cell culture medium of a 96-well plate, and further cultivated for 24 hours. 10 μL of CCK-8 solution was then added to each well, and the culture plate was incubated in an incubator for 1 hour. The absorbance at 450 nm was measured by a microplate reader.
Cell survival rate can represent the toxicity of cationic lipids to cells. The higher the cell survival rate, the lower the toxicity to cells.

female BALB/C mice = assay: Live imaging in mice: protein expression of Fluc-mRNA delivered by LNP formulations; type: in vivo
Description: In addition, the protein expression and duration of mRNA in mice delivered by the cationic lipid delivery carriers designed were also verified.
The LNP formulation containing […] Fluc-mRNA was injected intramuscularly into female BALB/C mice aged 4 to 6 weeks old and weighed 17 to 19 g, and the mice were intraperitoneally injected with fluorescent imaging substrate at specific time points after administration (6 h, 24 h, 48 h and 7 d), where the mice were free to move for 5 minutes, and then the average radiation intensity (corresponding to fluorescence expression intensity) of the protein expression of the mRNA carried by the LNP in the mice was detected by the IVIS Spectrum small animal live imaging device.

CCCCCCCCCCOC(=O)CCCN(CCO)CCCCCC(=O)OCC(CCCCCCCC)CCCCCCCC [YK-009, reference compound]
Relative light unit (RLU) (293T cells [1]; LNP formulation of Fluc-mRNA, 96-well plate, 24 hours): 5118942 RLU
Multiples (YK-305) (293T cells [1]; RLU of YK-305 / RLU of the lipid of the line): 5.35
Multiples (YK-310) (293T cells [1]; RLU of YK-310 / RLU of the lipid of the line): 5.04
Multiples (YK-312) (293T cells [1]; RLU of YK-312 / RLU of the lipid of the line): 3.94
Multiples (YK-318) (293T cells [1]; RLU of YK-318 / RLU of the lipid of the line, Tables 5, 7, 11): 2.19
Multiples (YK-319) (293T cells [1]; RLU of YK-319 / RLU of the lipid of the line, Tables 5, 7, 11): 4.78
Ratio relative to SM-102 (293T cells [1]; RLU of the lipid / RLU of SM-102, times that of SM-102): 3.19
PDI (%) [2]: 18.1%
Particle size (nm) [2]: 192 nm
Cell survival rate (%) (293T cells [3]): 72.55%
average radiation intensity (female BALB/C mice; 6 h after intramuscular injection): 1004580
average radiation intensity (female BALB/C mice; 24 h after intramuscular injection): 754120
average radiation intensity (female BALB/C mice; 48 h after intramuscular injection): 110140
average radiation intensity (female BALB/C mice; 7 d after intramuscular injection): 9984
